Laboratory results reported in US7585871B2, “Phenanthridine carbonyl phenols” (Wyeth, priority 2004, dated 2009).

Columns and labels:
human ERα = molecular target: T1, human ERα (Homo sapiens, UniProt P03372); assay: IL-6 luciferase (IL6-luc) assay in ERα infected HAECT-1 cells; type: cell-based; conditions: for IC50: ERα infected HAECT-1 cells, IL-1β, Ad5-IL-6(1250 bp).Luc virus, 15-20 h; for IL6-luc (% E2): efficacy relative to E2, value in parentheses after the IC50
T1 construct: expressed in transfected cells; host or cells: HAECT-1 cells (immortalized human aortic endothelial cells) infected with Ad5-wt-hERα adenovirus
T1 sequence (P03372 1-595): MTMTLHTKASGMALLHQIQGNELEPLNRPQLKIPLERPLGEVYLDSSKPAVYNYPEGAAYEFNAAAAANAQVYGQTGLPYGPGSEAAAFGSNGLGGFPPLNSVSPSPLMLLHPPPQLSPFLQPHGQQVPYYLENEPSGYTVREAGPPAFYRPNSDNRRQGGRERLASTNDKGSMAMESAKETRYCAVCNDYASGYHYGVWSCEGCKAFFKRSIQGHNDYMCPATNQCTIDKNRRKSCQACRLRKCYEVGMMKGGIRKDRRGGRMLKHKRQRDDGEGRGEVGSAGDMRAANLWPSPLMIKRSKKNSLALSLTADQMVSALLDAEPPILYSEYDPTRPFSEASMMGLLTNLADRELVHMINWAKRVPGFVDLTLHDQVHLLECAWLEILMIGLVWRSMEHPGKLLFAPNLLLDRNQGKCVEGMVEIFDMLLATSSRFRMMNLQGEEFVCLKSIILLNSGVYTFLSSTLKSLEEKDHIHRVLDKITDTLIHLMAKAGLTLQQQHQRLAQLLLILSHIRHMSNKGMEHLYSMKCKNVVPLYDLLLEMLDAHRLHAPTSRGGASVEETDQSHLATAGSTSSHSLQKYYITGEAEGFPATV
Method: After four hours, cells were washed with EBM-BSA and incubated overnight in the same medium. Following overnight incubation, cells were washed with EBM-BSA and infected for 2 hours with 6 ml of a 1:10 dilution of Ad5-3x(NFκB).Luc virus (Adenovirus luciferase expression vector driven by 3 repeats of the MHC NFκb site 5′ to the thymidine kinase promoter) in EBM-BSA. After two hours, cells were washed and incubated at 34° C. for 1 hour. […] Control (no ER infection) cells were processed as above without Ad5-wt-hERα virus infection.
ERα infected HAECT-1 cells or control cells were thawed, diluted 42× in warm EBM-BSA, plated into 96-well plates at 0.1 ml/well and incubated for 4 h at 34° C. […] After 15-20 h, cells are lysed with 50 ul of Promega Cell Culture Lysis reagent for ˜5 min at room temp on shaker. After lysing, 15 ul of lysate is transferred to luminometer plates for luciferase determination. […] Creatine kinase was determined from the rate of increase in A340 following addition of 100 uL of CK assay reagent (Sigma, cat. No 47-10) to the remainder of the cell lysate.
For IC50 and EC50 calculations, mean IL-6, luciferase or CK values versus log10 of the compound concentration were fitted to a four parameter logistic equation. The IC50/EC50 value, ‘Hill slope’, upper and lower limits of the curve were iteratively estimated.

SMILES: C[C@H]1c2ccccc2-c2ccc(F)cc2N1C(=O)c1ccc(O)cc1 (single isomer, unassigned) [Example 38]
- melting point: 236.6 to 237.8 °C

SMILES: CC1c2ccccc2-c2ccc(Cl)cc2N1C(=O)c1ccc(O)cc1 (racemic) [Example 27, 4-[(3-chloro-6-methylphenanthridin-5(6H)-yl)carbonyl]phenol]
- melting point: 165 to 165.9 °C

SMILES: C[C@H]1c2ccccc2-c2ccc(Cl)cc2N1C(=O)c1ccc(O)cc1 [Example 29, 4-{[(6S)-3-chloro-6-methylphenanthridin-5(6H)-yl]carbonyl}phenol]
- IC50 (human ERα): 1000 nM
- IL6-luc (% E2) (human ERα): 75%
- melting point: 273.7 to 276 °C

SMILES: C[C@@H]1c2ccccc2-c2ccc(Cl)cc2N1C(=O)c1ccc(O)cc1O [Example 31, 4-{[(6R)-3-chloro-6-methylphenanthridin-5(6H)-yl]carbonyl}benzene-1,3-diol]
- IC50 (human ERα): 3 nM
- IL6-luc (% E2) (human ERα): 87%

SMILES: C[C@H]1c2ccccc2-c2ccc(F)cc2N1C(=O)c1ccc(O)cc1O (single isomer, unassigned) [Example 41]
- IC50 (human ERα): 272 nM
- IL6-luc (% E2) (human ERα): 88%
- melting point: 182 to 184 °C

SMILES: C[C@H]1c2ccccc2-c2ccc(Cl)cc2N1C(=O)c1ccc(O)cc1O [Example 32, 4-{[(6S)-3-chloro-6-methylphenanthridin-5(6H)-yl]carbonyl}benzene-1,3-diol]
- IC50 (human ERα): 789 nM
- IL6-luc (% E2) (human ERα): 125%

SMILES: CC[C@H]1c2cc(F)ccc2-c2ccccc2N1C(=O)c1ccc(O)cc1 [Example 19, 4-{[(6S)-6-ethyl-8-fluorophenanthridin-5(6H)-yl]carbonyl}phenol]
- IC50 (human ERα): 85 nM
- IL6-luc (% E2) (human ERα): 88%
- melting point: 103 to 104 °C

SMILES: C[C@H]1c2ccccc2-c2ccc(Cl)cc2N1C(=O)c1cccc(O)c1 [Example 26, 3-{[(6S)-3-chloro-6-methylphenanthridin-5(6H)-yl]carbonyl}phenol]
- IC50 (human ERα): 377 nM
- IL6-luc (% E2) (human ERα): 49%

SMILES: C[C@H]1c2cc(F)ccc2-c2ccccc2N1C(=O)c1ccc(O)cc1 [Example 3, 4-{[(6S)-8-fluoro-6-methylphenanthridin-5(6H)-yl]carbonyl}phenol]
- IC50 (human ERα): 414 nM
- IL6-luc (% E2) (human ERα): 114%

SMILES: C[C@H]1c2cc(F)ccc2-c2ccccc2N1C(=O)c1cccc(O)c1 [Example 2, 3-{[(6S)-8-fluoro-6-methylphenanthridin-5(6H)-yl]carbonyl}phenol]
- IC50 (human ERα): 38 nM
- IL6-luc (% E2) (human ERα): 53%

SMILES: C[C@@H]1c2cc(F)ccc2-c2ccccc2N1C(=O)c1ccc(O)cc1F [Example 5, 3-fluoro-4-{[(6R)-8-fluoro-6-methylphenanthridin-5(6H)-yl]carbonyl}phenol]
- IC50 (human ERα): 9 nM
- IL6-luc (% E2) (human ERα): 97%

SMILES: CCC1c2cc(F)ccc2-c2ccccc2N1C(=O)c1ccc(O)cc1F (racemic) [Example 23, 4-[(6-ethyl-8-fluorophenanthridin-5(6H)-yl)carbonyl]-3-fluorophenol]
- IC50 (human ERα): 1 nM
- IL6-luc (% E2) (human ERα): 107%
- melting point: 109 to 111 °C

SMILES: CC1c2ccccc2-c2ccc(Cl)cc2N1C(=O)c1cccc(O)c1 (racemic) [Example 24, 3-[(3-chloro-6-methylphenanthridin-5(6H)-yl)carbonyl]phenol]
- melting point: 176.2 to 177.9 °C

SMILES: C[C@H]1c2cc(F)ccc2-c2ccccc2N1C(=O)c1ccc(O)c(F)c1 [Example 10, 2-fluoro-4-{[(6S)-8-fluoro-6-methylphenanthridin-5(6H)-yl]carbonyl}phenol]
- IC50 (human ERα): 1470 nM
- IL6-luc (% E2) (human ERα): 68%

SMILES: C[C@@H]1c2cc(F)ccc2-c2ccccc2N1C(=O)c1cc(O)ccc1F [Example 7, 4-fluoro-3-{[(6R)-8-fluoro-6-methylphenanthridin-5(6H)-yl]carbonyl}phenol]
- IC50 (human ERα): 263 nM
- IL6-luc (% E2) (human ERα): 70%

SMILES: CC1c2ccccc2-c2ccc(F)cc2N1C(=O)c1cccc(O)c1 (racemic) [Example 33, 3-[(3-fluoro-6-methylphenanthridin-5(6H)-yl)carbonyl]phenol]
- melting point: 163.9 to 165 °C

SMILES: CC1c2ccccc2-c2ccc(F)cc2N1C(=O)c1ccc(O)cc1 (racemic) [Example 36, 4-[(3-fluoro-6-methylphenanthridin-5(6H)-yl)carbonyl]phenol]
- melting point: 134.5 to 135 °C

SMILES: C[C@@H]1c2cc(F)ccc2-c2ccc(F)cc2N1C(=O)c1ccc(O)cc1 (single isomer, unassigned) [Example 43]
- IC50 (human ERα): 1.5 nM
- IL6-luc (% E2) (human ERα): 147%
- melting point: 138 to 140 °C

SMILES: C[C@H]1c2cc(F)ccc2-c2ccccc2N1C(=O)c1cc(O)ccc1Br [Example 16, 4-bromo-3-{[(6S)-8-fluoro-6-methylphenanthridin-5(6H)-yl]carbonyl}phenol]
- IC50 (human ERα): 832 nM
- IL6-luc (% E2) (human ERα): 91%

SMILES: C[C@H]1c2cc(F)ccc2-c2ccccc2N1C(=O)c1ccc(O)cc1F [Example 6, 3-fluoro-4-{[(6S)-8-fluoro-6-methylphenanthridin-5(6H)-yl]carbonyl}phenol]
- IC50 (human ERα): 403 nM
- IL6-luc (% E2) (human ERα): 90%

SMILES: COc1cc(C(=O)N2c3ccccc3-c3ccc(F)cc3[C@H]2C)ccc1O [Example 17, 4-{[(6R)-8-fluoro-6-methylphenanthridin-5(6H)-yl]carbonyl}-2-methoxyphenol]
- IC50 (human ERα): 364 nM
- IL6-luc (% E2) (human ERα): 113%

SMILES: C[C@@H]1c2ccccc2-c2ccc(F)cc2N1C(=O)c1cccc(O)c1 (single isomer, unassigned) [Example 34]
- IC50 (human ERα): 11 nM
- IL6-luc (% E2) (human ERα): 188%

SMILES: C[C@@H]1c2cc(F)ccc2-c2ccccc2N1C(=O)c1ccc(O)c(Br)c1 [Example 13, 2-bromo-4-{[(6R)-8-fluoro-6-methylphenanthridin-5(6H)-yl]carbonyl}phenol]
- IC50 (human ERα): 51 nM
- IL6-luc (% E2) (human ERα): 102%

SMILES: CC[C@@H]1c2cc(F)ccc2-c2ccccc2N1C(=O)c1ccc(O)cc1 [Example 20, 4-{[(6R)-6-ethyl-8-fluorophenanthridin-5(6H)-yl]carbonyl}phenol]
- IC50 (human ERα): 6 nM
- IL6-luc (% E2) (human ERα): 95%
- melting point: 105 to 106 °C

SMILES: C[C@@H]1c2cc(F)ccc2-c2ccccc2N1C(=O)c1ccc(O)c(F)c1 [Example 9, 2-fluoro-4-{[(6R)-8-fluoro-6-methylphenanthridin-5(6H)-yl]carbonyl}phenol]
- IC50 (human ERα): 31 nM
- IL6-luc (% E2) (human ERα): 81%

SMILES: C[C@@H]1c2cc(F)ccc2-c2ccccc2N1C(=O)c1cc(O)ccc1Br [Example 15, 4-bromo-3-{[(6R)-8-fluoro-6-methylphenanthridin-5(6H)-yl]carbonyl}phenol]
- IC50 (human ERα): 301 nM
- IL6-luc (% E2) (human ERα): 76%

SMILES: C[C@@H]1c2cc(F)ccc2-c2ccccc2N1C(=O)c1ccc(O)cc1 [Example 1, 4-{[(6R)-8-fluoro-6-methylphenanthridin-5(6H)-yl]carbonyl}phenol]
- IC50 (human ERα): 5 nM
- IL6-luc (% E2) (human ERα): 100%

SMILES: C[C@@H]1c2cc(F)ccc2-c2ccccc2N1C(=O)c1cccc(O)c1 [Example 4, 3-{[(6R)-8-fluoro-6-methylphenanthridin-5(6H)-yl]carbonyl}phenol]
- IC50 (human ERα): 47 nM
- IL6-luc (% E2) (human ERα): 102%
- melting point: 162 °C

SMILES: C[C@H]1c2cc(F)ccc2-c2ccc(F)cc2N1C(=O)c1ccc(O)cc1 (single isomer, unassigned) [Example 44]
- IC50 (human ERα): 130 nM
- IL6-luc (% E2) (human ERα): 132%
- melting point: 135 to 138 °C
